From patent US20240238249A1, “Lipidic Nano-Pharmaceuticals” (Huxley Health Inc., priority 2022, published 2024)

Columns and labels:
[1] = 14C mescaline injected into developing rats; especially in adult animals; cited from earlier work
[2] = 14C labelled psilocybin, animals; cited from earlier work

## CCCCCCCC(=O)Oc1ccc2[nH]cc(CCN(C)C)c2c1
other
  melting point: 48.3 to 50.2 °C

## COc1cc(CCN)cc(OC)c1OC [mescaline, 3,4,5-trimethoxyphenethylamine]
[1]
  permeability of the BBB to mescaline: nearly impermeable

## CN(C)CCc1c[nH]c2cccc(OP(=O)(O)O)c12 [psilocybin]
[2]
  absorption following oral administration: < 50%
